Experimental findings from patent US12589170B2, “Devices and methods for radiopharmaceutical synthesis” (VANDERBILT UNIVERSITY, priority 2019, dated 2026) are described below.

One data set relates to rat brain. Description: microPET imaging of rat brain with [18F]fallypride produced in the microfluidic chip. It is filed as in vivo. As to conditions: dose of about 300 μCi, microPET for about 2 hours. The source says: To further verify the utility of the resulting [^18F]fallypride, we produced (using the integrated microfluidic chip) a dose of about 300 μCi with about 19.55 Ci/μmol (723.35 GBq/μmol) of specific activity and about 98.62% of radiochemical purity, and obtained PET data from a rat brain. The time point used to calculate the specific activity was at the end of production, namely the time when the purified [^18F]fallypride was retrieved from chip. The rat was brought to the imaging lab to habituate about 3 hours prior to imaging. About 0.1 ml purified [^18F] fallypride was filtered through an about 0.45 μm filter (Millex-HV) and about 0.9 ml saline was added to formulate the PET probe used for rat injection. […] The accumulation and pharmacokinetics of [^18F]fallypride were as expected when evaluated in the rat brain.

Data set [1] is described as follows: Stability of final product at room temperature examined by radio-HPLC. It is filed as physicochemical. As to conditions: duration up to about 4 hours. On the procedure:
A Hitachi HPLC (LaChrom Elite, Pump L-2130) equipped with a wavelength UV detector (L-2400, 254 nm) and inline radiation detector (Inline Carroll & Ramsey) was used to evaluate radiochemical purity. A C18 column (Phenomenex Gemini, particle size about 10 μm, 150×4.6 mm) was used. For the mobile phase, acetonitrile (referred as A1) mixed with water containing about 0.1% trifluoroacetic acid (TFA) was used with gradient as following: 0% A1/100% TFA for about 0-2 min, 100% A1/0% TFA for about 8-10 min. The flow rate was constantly set as about 1 mL/min. Moreover, radiochemical purity was also examined by radio thin layer chromatography (TLC) using ITLC (instant TLC) paper strips (Varian). […] The value of radioactivity was measured using a calibrated dose calibrator (Capintec, CRC-25PET). The radiochemical yields were evaluated as a percentage of total activity of ^68GaCl3 initially delivered from the generator. Unless specified elsewhere, all efficiencies are calculated based on decay-corrected values.
A radio-TLC chromatogram of synthesized product is shown in FIG. 6 and the ^68Ga-labelled peptide has an approximate retardation factor of about 0.8-1.0. Using the microfluidic device, the incorporation efficiency of 100% can be consistently achieved as determined by radio HPLC chromatogram (FIG. 7B). […]

Take `C=CCN1CCC[C@H]1CNC(=O)c1cc(CCC[18F])cc(OC)c1OC` [[^18F]fallypride]: in the data set on rat brain, the “accumulation and pharmacokinetics in the rat brain” value was “as expected”.
In the case of `O=C([O-])CN(CCN(CC(=O)[O-])Cc1cc(CCC(=O)NCCCCCC(=O)NCCCC[C@H](NC(=O)N[C@@H](CCC(=O)O)C(=O)O)C(=O)O)ccc1[O-])Cc1cc(CCC(=O)O)ccc1[O-].[68Ga+3].[OH3+]` [^68Ga-PSMA-11], the “stability of final product (retention time, product purity by radio-HPLC)” value in data set [1] is recorded as “no discrepancy on retention time or product purity was observed”.
